This note sets out measurements from patent US11926826B2, “Twist signaling inhibitor compositions and methods of using the same” (City of Hope, priority 2016, dated 2024).

For series [1], the system named is TWIST. Put plainly: TWIST knockdown after MSN delivery of siRNA in ovarian cancer cell lines. The series is classed as cell-based. The method, then: MSN design and delivery. Mesoporous silica nanoparticles (MSNs) were synthesized utilizing the sol-gel method as described previously. First, 250 mg 95% cetyltrimethylammonium bromide (CTAB) was dissolved in 120 ml of water with 875 μl 2M sodium hydroxide solution, at 80° C. Next, 1.2 ml of 98% tetraethylorthosilicate was added. After 15 min, 300 μl of 42% 3-(trihydroxysilyl) propyl methylphosphonate was added, and the mixture was stirred 2 hr. Particles were collected using centrifugation and washed with methanol. Acidic methanol was then used to remove any remaining CTAB surfactants. Zeta potential at 50 μg/mL was 43.75 mV [14]. All chemicals were obtained from Aldrich (St. Louis, MO). Particles were ˜120 nm in diameter, with 2.5 nm pores. Low molecular weight (1.8 kD branched polymer) polyethyleneimine (PEI) was electrostatically attached to the particle surface to provide a positive change to attract negatively charged siRNA [21]. To complex siRNA for in vitro experiments, 10 μl siRNA at 10 μM was mixed with 70 ul MSNs at 500 μg/ml and 20 μl water, and the mixture was incubated overnight at 4° C. on a roller. The following day, 100 μl of the MSN-siRNA complexes was added to each well of a 6-well plate containing 1900 μl normal medium.
(§1) Western Blotting. Following siRNA treatment, cells were pelleted and lysed in RIPA buffer. Protein concentration was determined by BCA assay (Thermo Fisher). Following SDS-PAGE, protein was transferred to Amersham PVDF membrane (Genesee Scientific) using a BioRad Trans-Blot SD semi-dry transfer unit. Blots were then blocked in milk for one hour at room temperature or overnight at 4° C. Incubation with primary antibody took place for one hour at room temperature or overnight at 4° C. Antibodies were diluted in 5% milk, with 0.1-0.2% Tween-20. Antibodies used were TWIST 2c1a (Santa Cruz Biotechnology, Dallas, TX) at 1:250-1:500 dilution, β-Actin, A1978 (Sigma Aldrich, St. Louis, MO) at 1:2500-1:5000 dilution; and Horseradish Peroxidase (HRP) conjugated anti-mouse secondary antibodies. […]

The subject of series [2] is TWIST1. As to the kind of experiment: TWIST1 knockdown after Lipofectamine 2000 transfection of siRNA in MDA-MB-435S cells (western blot). The format is cell-based, human. As to conditions: unmodified vs passenger-strand modified si419. As for the experimental part:
Transient transfection of MDA-MB-435S GFP+ffluc was carried out using LIPOFECTAMINE® 2000 (Thermo Fisher Scientific, Waltham, MA) according to the manufacturer's instructions. LIPOFECTAMINE® 2000 transfection was used to confirm the functionality of the siRNA (si419 and si494) prior to testing their efficacy with MSNs. Transfection of siRNA with MSNs was carried out by incubating the MSNs with the siRNA overnight at 4° C. while rotating the tube constantly. The mixture consisted of 7 parts MSN (diluted to 500 ng/ul in sterile PBS) to 1 part siRNA (diluted to 10 uM). The final concentration for of MSNs and siRNA applied to cells was 17.5 ng/ul and 50 nM, respectively.
Western Blot. Following siRNA treatment described above, cells were lifted from tissue culture wells with 0.25% trypsin, pelleted, and lysed in RIPA buffer. Protein concentration was determined using a BCA Assay (Thermo Fisher Scientific). A total of 30 μg of protein per lane was run on 4% stacking and 12% resolving polyacrylamide gels. Following gel electrophoresis, protein was transferred to Immobilon-P PVDF membrane (Millipore, Billerica, MA) using a Trans-Blot SD Semi-Dry Transfer Cell (Bio-Rad, Hercules, CA). Membranes were then blocked with 5% dry milk dissolved in 1×PBS with 0.1% Tween-20. Antibodies were diluted in blocking buffer (1:250 for anti-TWIST1 and 1:2,500 for anti-Actin). […]
Background: Immunoblotting shows a protein as a band on a membrane.

Series [3] deals with Ov8GFP-TWIST1 cells. Put plainly: SRB assay, cisplatin plus PI3K inhibitor LY294002. The format is cell-based, human. The method, then:
Sulphorhodamine B assays. Cells were plated at 5,000 per well in normal medium in 96 well plates (100 μL/well), n=6 per drug concentration, per condition. Cells were allowed to adhere overnight, and then cisplatin was added. Cisplatin was prepared at 2× concentration in 100 μL normal medium, and then added to cells to yield 200 μL at 1×. Following 3 day incubation with cisplatin, medium was removed and cells were fixed with 10% trichloroacetic acid (TCA, 100 μL/well) at 4° C. for 1 hr. TCA was then removed and wells were rinsed with 200 μl water and allowed to air dry 10 min. […] Plates were air dried and excess SRB adhered to the walls of the wells was removed with a cotton swab. Finally, SRB was solubilized in 10 mM Tris base (200 μL/well) and absorbance was measured at 570 nm on a SpectraMax Plus plate reader (Molecular Devices, Sunnyvale, CA). Readings for each condition were normalized to untreated wells from the same condition. Cisplatin concentrations were adjusted to fit experimental demands. […] For Akt studies, the PI3K inhibitor LY294002 was used to inhibit Akt activation (FIGS. 25A-25D), and was obtained from Cell Signaling Technology (Danvers, MA).
On the technique in general: Sulforhodamine B stains cellular protein and so reports cell mass.

Series [4] deals with TWIST. Put plainly: TWIST knockdown after Lipofectamine 2000 transfection in A2780R (western blot). The note with it: over three days post transfection. The format is cell-based. As for the experimental part: Cell Culture. A2780R and all derivatives of Ovcar8 were grown in RPMI 1640 (Genesee Scientific, San Diego, CA) in a tissue culture incubator at 37° C., 5% CO2, and 90% humidity. Growth medium was supplemented with 10% fetal bovine serum and 1% penicillin/streptomycin. Cells were passaged every 2-4 days using 0.25% trypsin (Genesee Scientific). Where indicated, cells were transfected with Lipofectamine 2000 (Thermo Fisher, Waltham, MA) according to the manufacturer's instructions. A2780R cells are a cisplatin resistant derivative of A2780.
as §1

The test system of series [5] is N-Cadherin mRNA. Put plainly: qPCR after YTZ3-15 delivery of siTwist in SUM 1315: N-Cadherin. The series is classed as cell-based, human. The note with it: delivered via YTZ3-15; after seven days. The method, then:
(§2) Cell Culture, Transfection, and Stable Cell Line Production. SUM 1315 breast cancer cells were obtained from ATCC (Manassas, VA). Cells were maintained at 37° C., 5% CO2, and 90% humidity in a tissue culture incubator. Media for SUM 1315 cells consisted of a 50-50 mixture of DMEM and F12 media, supplemented with 5 μg/ml insulin, 10 ng/ml EGF, 5% fetal bovine serum, and 1% penicillin/streptomycin. Cells were passaged using 0.25% trypsin (Genesee Scientific, San Diego, CA) every 2-3 days as they reached confluency. […]
(§3) Quantitative PCR. […] RNA quantity and quality was measured and analyzed (with 260/280 nm and 260/230 nm spectra measurements) using a NanoDrop ND-1000 (Thermo Fisher Scientific, Waltham, MA). […] Quantitative RT-PCR was performed in quadruplicate using Maxima SYBR Green Master Mix (Thermo Fisher Scientific, Waltham, MA) in 25 μl reactions. […] Data were analyzed using Bio-Rad iQ5 software using the 2^−ΔΔ^Ct method and normalized to Actin. […]
(Real-time PCR tracks product formation cycle by cycle.)

Series [6] deals with Vimentin mRNA. Put plainly: qPCR after YTZ3-15 delivery of siTwist in SUM 1315: Vimentin. The series is classed as cell-based, human. The note with it: delivered via YTZ3-15; after one day. The method, then:
as §2, §3

Series [7] concerns TWIST1. Put plainly: TWIST1 knockdown after Lipofectamine 2000 transfection in SUM 1315. The series is classed as cell-based, human. The method, then:
as §2, §3
Western Blot. […] Cells were pelleted, lysed in RIPA buffer, and protein concentration was determined using the BCA Assay (Thermo Fisher Scientific, Waltham, MA). […]

Series [8] deals with TWIST. Put plainly: TWIST knockdown after YTZ3-15 delivery of siRNA in ovarian cancer cell lines. The series is classed as cell-based. As for the experimental part:
PAMAM dendrimer design and delivery. The polyamidoamine (PAMAM) dendrimer used in this study is the […] third generation dendrimer, illustrated in FIG. 16A and previously described. To complex the dendrimer with siRNA, YTZ3-15 at 240 μM was mixed with […] in OptiMEM Low Serum Medium (Thermo Fisher). Upon complexing with siRNA, dendrimers form micelle structures with siRNA at the surface and the hydrophobic tails sequestered in the core (FIG. 16B). 14.6 μl YTZ3-15 and 10 μl siRNA were used per well of a 6-well plate. Final concentrations of YTZ3-15 and siRNA once added to cells were 1.75 μM and 50 nm, respectively. Where indicated, 3.5 μM YTZ3-15 and 100 nm siRNA were used for Ovcar8.
Western Blotting. Following siRNA treatment, cells were pelleted and lysed in RIPA buffer. Protein concentration was determined by BCA assay (Thermo Fisher). Following SDS-PAGE, protein was transferred to Amersham PVDF membrane (Genesee Scientific) using a BioRad Trans-Blot SD semi-dry transfer unit. Blots were then blocked in milk for one hour at room temperature or overnight at 4° C. Incubation with primary antibody took place for one hour at room temperature or overnight at 4° C. Antibodies were diluted in 5% milk, with 0.1-0.2% Tween-20. Antibodies used were TWIST 2c1a (Santa Cruz Biotechnology, Dallas, TX) at 1:250-1:500 dilution, β-Actin, A1978 (Sigma Aldrich, St. Louis, MO) at 1:2500-1:5000 dilution; and Horseradish Peroxidase (HRP) conjugated anti-mouse secondary antibodies. For film-based westerns, Blue Devil film (Genesee Scientific) and ECL Plus chemiluminescent substrate (Thermo Fisher) were used to detect protein. For digital westerns, the Syngene Pxi4 digital blot imager and Michigan Diagnostics FemtoGlow chemilumescent substrate were used.

[iaB] = inverted abasic ribose cap; [2sU] = 2-thio-2'-deoxyuridine; d = 2'-deoxy (DNA); m = 2'-O-methyl; r = 2'-OH (RNA)

Turning to “si419H: chemically modified si419 duplex: 2′-O-methyl and inverted abasic ribose on passenger strand (SEQ ID NO:11; guide SEQ ID NO:12) (sense GGACAAGCUGAGCAAGAUU; antisense AAUCUUGCUCAGCUUGUCCUU; siRNA; sense: sugars from the 5' end r17 m2, [iaB] at 5' end, 3' end, backbone not given here; antisense: sugars from the 5' end r16 d1 r4, [2sU] at 17, backbone not given here)”, in series [1] (Ovcar8-IP, MSNs), the TWIST knockdown result is given as “robust knockdown of TWIST even after 24 hours”. The “knockdown (efficiency, FIG. 6)” value in series [2] is “approximately 80%”.

For the compound `O=c1cc(N2CCOCC2)oc2c(-c3ccccc3)cccc12` [LY294002], the “greater cell death vs cisplatin alone” value was found to be 15% in series [3] (combination with 5 μM cisplatin) and 25% in series [3] (combination with 10 μM cisplatin).

Turning to “si494: anti-TWIST siRNA; passenger 5′-GCGACGAGCUGGACUCCAA-3′ (SEQ ID No: 3), guide 5′-UUGGAGUCCAGCUCGUCGCUU-3′ (SEQ ID No: 4) (listed as RNA, chemistry not fully specified)”, the TWIST knockdown entry was “robust TWIST knockdown lasting one week post transfection” in series [1] (A2780R and Ovcar8, loaded onto MSNs); “successfully knocked down TWIST” in series [8] (A2780R); “minimal” in series [8] (Ovcar8, double the usual dose (100 nM siRNA)). For the same compound, in series [4], the TWIST expression entry is reported as “completely inhibit TWIST expression”. Also, the “N-Cadherin mRNA decrease” value in series [5] is on record as “approximately 90%”. The “Vimentin mRNA level” value in series [6] is reported as “nearly undetectable”. Also, the “TWIST1 knockdown (protein and mRNA)” value in series [7] is “slightly more knockdown than siTwistA”.
